As usually defined, the IC50 is the concentration that gives 50% inhibition.

These results are taken from patent publication US7179825B2, “Retinoic acid mimetic anilides” (Janssen Pharmaceutica N.V., priority 1997, dated 2007).

In test [1] the test system is metabolism of retinoic acid in human breast cancer cells. The test can be described thus: Inhibition of retinoic acid (RA) metabolism (Example C.1). The format is cell-based. As to conditions: MCF-7 human breast cancer cells, 3H-RA as substrate, concentration needed to reduce the amount of metabolites to 50% of the control. The method, boiled down:
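MCF-7 cells, pre-stimulated with RA the day before, incubated with ³H-RA substrate and test compound in 1% DMSO. Polar ³H-metabolites separated from unmetabolized RA and counted by scintillation. IC50 is the concentration cutting metabolite formation to 50% of control, with blank run alongside.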

The next test has as its system Ovariectomized rats. The experiment in a line: Vaginal keratinization test on ovariectomized rats (Example C.2). The format is in vivo. The following applies: estradiol undecylate induced keratinization, per os once daily on days 1-3, active dose = 50% of rats show complete suppression. The method, boiled down:
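Ovariectomized rats given s.c. estradiol undecylate (100 μg per 100 g body weight in sesame oil), then oral compound once daily on days 1-3 (vehicle PEG 200). Vaginas assessed histologically one day after last dose; lowest active dose (mg/kg) is the dose giving complete keratinization suppression in 50% of rats.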

Consider `CC(C)C(c1ccc(NC(=O)Nc2cccc(F)c2)cc1)n1cncn1` (racemic) [Compound 725], for which, in test [1], the IC50 is 3.29 nM. Besides, the “LAD (lowest active dose)” value with Ovariectomized rats stood at 5.00 mg/kg.

With `CC(C)C(c1ccc(NC(=O)Nc2ccccc2F)cc1)n1ccnc1` (racemic) [Compound 726], in test [1], the IC50 is 3.71 nM. Besides, the “LAD (lowest active dose)” value in the test on Ovariectomized rats amounted to 5.00 mg/kg.

On to `CC(C)C(c1ccc(NC(=O)Nc2cccc(N)c2)cc1)n1ccnc1` (racemic) [Compound 727], for which, in test [1], the IC50 came to 1.64 nM. Further, the “LAD (lowest active dose)” value in the test on Ovariectomized rats is reported as greater than 10.00 mg/kg.

For `CC(C)C(c1ccc(NC(=O)Nc2cc(F)ccc2F)cc1)n1ccnc1` (racemic) [Compound 728], in test [1], the IC50 is 1.41 nM. Also, in the test with Ovariectomized rats, the “LAD (lowest active dose)” value was 5.00 mg/kg.

Consider `O=C(Nc1ccc(C(c2cccc(C(F)(F)F)c2)n2ccnc2)cc1)Nc1cccc(F)c1` (racemic) [Compound 729], for which the IC50 in test [1] is greater than 100 nM. In the test with Ovariectomized rats, the “LAD (lowest active dose)” value stood at 2.50 mg/kg.

Consider `CC(C)C(c1ccc(NC(=O)Nc2cccc(C(F)(F)F)c2)cc1)n1ccnc1` (racemic) [Compound 730], for which the IC50 in test [1] amounted to 15.9 nM. For the same molecule, in the test with Ovariectomized rats, the “LAD (lowest active dose)” value was greater than 10.00 mg/kg.

On to `CC(C)C(c1ccc(NC(=O)Nc2ccc(Cl)c(Cl)c2)cc1)n1ccnc1` (racemic) [Compound 732], for which the IC50 in test [1] was 19.3 nM. In the test on Ovariectomized rats, the “LAD (lowest active dose)” value is recorded as greater than 10.00 mg/kg.

For `COc1cccc(NC(=O)Nc2ccc(C(C(C)C)n3ccnc3)cc2)c1` (racemic) [Compound 733], the IC50 in test [1] was determined as 2.41 nM. Further, the “LAD (lowest active dose)” value in the test with Ovariectomized rats is reported as greater than 10.00 mg/kg.

As for `CC(C)C(c1ccc(NC(=O)Nc2ccc(F)cc2F)cc1)n1ccnc1` (racemic) [Compound 734], the IC50 in test [1] was 2.25 nM. In the test on Ovariectomized rats, the “LAD (lowest active dose)” value is 10.00 mg/kg.

Regarding `O=C(Nc1ccc(C(c2ccccc2)n2ccnc2)cc1)Nc1cccc(F)c1` (racemic) [Compound 735], the IC50 in test [1] is greater than 100 nM. Besides, the “LAD (lowest active dose)” value in the test with Ovariectomized rats stood at 10.00 mg/kg.

`Cc1cccc(NC(=O)Nc2ccc(C(C(C)C)n3ccnc3)cc2)c1` (racemic) [Compound 736]: the IC50 in test [1] is 7.45 nM. For the same molecule, in the test with Ovariectomized rats, the “LAD (lowest active dose)” value was greater than 10.00 mg/kg.

`CC(C)C(c1ccc(NC(=O)Nc2cccc([N+](=O)[O-])c2)cc1)n1ccnc1` (racemic) [Compound 737]: in test [1], the IC50 was found to be 2.36 nM. Moreover, the “LAD (lowest active dose)” value in the test with Ovariectomized rats is greater than 10.00 mg/kg.

On to `CC(C)C(c1ccc(NC(=O)Nc2cccc(Cl)c2)cc1)n1ccnc1` (racemic) [Compound 738], for which, in test [1], the IC50 stood at 2.03 nM. Besides, the “LAD (lowest active dose)” value in the test with Ovariectomized rats came out at 10.00 mg/kg.

In the case of `CC(C)C(c1ccc(NC(=O)Nc2ccc(Cl)cc2)cc1)n1ccnc1` (racemic) [Compound 739], the 50% inhibitory concentration (IC50) in test [1] is 42.1 nM. For the same molecule, in the test with Ovariectomized rats, the “LAD (lowest active dose)” value is listed as greater than 10.00 mg/kg.

Consider `CC(C)C(c1ccc(NC(=O)Nc2ccc(F)cc2)cc1)n1ccnc1` (racemic) [Compound 740, (±)-N-(4-fluorophenyl)-N′-[4-[1-(1H-imidazol-1-yl)-2-methylpropyl]phenyl]urea], for which the IC50 in test [1] (MCF7) came to 1.29 nM. Moreover, the minimal effective dose in the test on Ovariectomized rats (Rattus norvegicus, po, read-out: LAD (lowest active dose)) was determined as 20 mg/kg.

For `CC(C)C(c1ccc(NC(=O)Nc2cccc(F)c2)cc1)n1ccnc1` (racemic) [Compound 741], the IC50 in test [1] stood at 1.44 nM. Further, the “LAD (lowest active dose)” value in the test with Ovariectomized rats amounted to 10.00 mg/kg.

In the case of `CC(C)C(c1ccc(NC(=O)Nc2ccccc2)cc1)n1ccnc1` (racemic) [Compound 742], the IC50 in test [1] came out at 0.261 nM. For the same molecule, the “LAD (lowest active dose)” value in the test with Ovariectomized rats turned out to be 10.00 mg/kg.

As for `CCCCC(c1ccc(NC(=O)/C(C)=C/c2ccccc2)cc1)(C(C)C)n1ccnc1` (racemic) [Compound 761], in test [1], the IC50 is greater than 100 nM. Moreover, the “LAD (lowest active dose)” value in the test with Ovariectomized rats is greater than 5.00 mg/kg.

Turning to `CCC(CC)C(O)(c1ccc(NC(C)=O)cc1)c1cncn1C` (racemic) [Compound 772], in test [1], the IC50 is 0.146 nM. In addition, the “LAD (lowest active dose)” value with Ovariectomized rats was greater than 5.00 mg/kg.

Take `CCC(CC)C(c1ccc(NC(=O)C(O)c2ccc(Cl)cc2)cc1)n1cncn1` (single isomer, unassigned) [Compound 21]: in test [1], the IC50 is 2.89 nM. Also, in the test with Ovariectomized rats, the “LAD (lowest active dose)” value is listed as 5.00 mg/kg.

Regarding `CCOc1ccc(CCC(=O)Nc2ccc(C(C(CC)CC)n3ccnc3)cc2)cc1` (single isomer, unassigned) [Compound 61], the IC50 in test [1] is 0.734 nM. Also, in the test on Ovariectomized rats, the “LAD (lowest active dose)” value is 2.50 mg/kg.

As for `CCC(CC)C(c1ccc(NC(=O)Cc2ccc(OC)c(C)c2)cc1)n1cncn1` (single isomer, unassigned) [Compound 85], the IC50 in test [1] came out at 3.92 nM. Besides, in the test on Ovariectomized rats, the “LAD (lowest active dose)” value is listed as 2.50 mg/kg.

As for `CCC(CC)C(c1ccc(NC(=O)Cc2ccc(OC)c(C)c2)cc1)n1cncn1` (single isomer, unassigned) [Compound 86], in test [1], the IC50 came out at 0.497 nM. Further, the “LAD (lowest active dose)” value in the test with Ovariectomized rats was determined as 2.50 mg/kg.

For the molecule `COc1ccc(CC(=O)Nc2ccc(C(C(C)N(C)C)n3cncn3)cc2)cc1Cl` (single isomer, unassigned) [Compound 288], in test [1], the IC50 was 1.28 nM. In addition, the “LAD (lowest active dose)” value in the test on Ovariectomized rats was greater than 2.50 mg/kg.

In the case of `CC(C(c1ccc(NC(=O)Cc2ccc(O)c(Cl)c2)cc1)n1cncn1)N(C)C` (single isomer, unassigned) [Compound 289], in test [1], the concentration for half-maximal inhibition (IC50) turned out to be 0.507 nM. The “LAD (lowest active dose)” value in the test with Ovariectomized rats is given as greater than 2.50 mg/kg.

As for `Cc1cc(CC(=O)Nc2ccc(C(C(C)N(C)C)n3cncn3)cc2)cc(C)c1C` (single isomer, unassigned) [Compound 290], the IC50 in test [1] worked out at 1.14 nM. Moreover, the “LAD (lowest active dose)” value in the test with Ovariectomized rats amounted to 2.50 mg/kg.

In the case of `Cc1cc(CC(=O)Nc2ccc(C(C(C)N(C)C)n3cncn3)cc2)cc(C)c1C` (single isomer, unassigned) [Compound 291], in test [1], the IC50 came out at 4.23 nM. Further, the “LAD (lowest active dose)” value in the test on Ovariectomized rats is reported as greater than 2.50 mg/kg.

On to `COc1cc(CC(=O)Nc2ccc(C(C(C)N(C)C)n3cncn3)cc2)cc(OC)c1OC` (single isomer, unassigned) [Compound 292], for which the half-inhibitory concentration (IC50) in test [1] came to 0.137 nM. For the same molecule, the “LAD (lowest active dose)” value with Ovariectomized rats is greater than 2.50 mg/kg.

As to `CCOc1ccc(CC(=O)Nc2ccc(C(C(C)N(C)C)n3cncn3)cc2)cc1OCC` (single isomer, unassigned) [Compound 293], the IC50 in test [1] was found to be 6.53 nM. For the same molecule, the “LAD (lowest active dose)” value in the test on Ovariectomized rats was greater than 2.50 mg/kg.

`COc1cc(CC(=O)Nc2ccc(C(C(C)N(C)C)n3cncn3)cc2)ccc1Cl` (single isomer, unassigned) [Compound 297]: the IC50 in test [1] came out at 0.786 nM. Further, the “LAD (lowest active dose)” value in the test with Ovariectomized rats is greater than 2.50 mg/kg.

For the molecule `CCOc1ccc(CC(=O)Nc2ccc(C(C(C)N(C)C)n3ccnc3)cc2)cc1OCC` (single isomer, unassigned) [Compound 301], the IC50 in test [1] came to 6.05 nM. Moreover, the “LAD (lowest active dose)” value with Ovariectomized rats is reported as greater than 2.50 mg/kg.

Regarding `Cc1ccc(CC(=O)Nc2ccc(C(C(C)N(C)C)n3ccnc3)cc2)cc1C` (single isomer, unassigned) [Compound 306], the IC50 in test [1] worked out at 1.26 nM. The “LAD (lowest active dose)” value with Ovariectomized rats is greater than 2.50 mg/kg.

For the molecule `CC(C(c1ccc(NC(=O)Cc2ccc(O)c(Cl)c2)cc1)n1ccnc1)N(C)C` (single isomer, unassigned) [Compound 307], in test [1], the IC50 was 0.701 nM. The “LAD (lowest active dose)” value in the test on Ovariectomized rats is greater than 2.50 mg/kg.

As to `Cc1cc(CC(=O)Nc2ccc(C(C(C)N(C)C)n3ccnc3)cc2)cc(C)c1C` (single isomer, unassigned) [Compound 309], the IC50 in test [1] turned out to be 3.65 nM. Besides, the “LAD (lowest active dose)” value with Ovariectomized rats was greater than 2.50 mg/kg.

Take `COc1cc(CC(=O)Nc2ccc(C(C(C)N(C)C)n3ccnc3)cc2)ccc1Cl` (single isomer, unassigned) [Compound 311]: the IC50 in test [1] worked out at 0.664 nM. The “LAD (lowest active dose)” value in the test with Ovariectomized rats is 2.50 mg/kg.

Turning to `COc1ccc(CC(=O)Nc2ccc(C(C(C)N(C)C)n3ccnc3)cc2)cc1C` (single isomer, unassigned) [Compound 313], in test [1], the IC50 came to 0.02 nM. For the same molecule, the “LAD (lowest active dose)” value in the test with Ovariectomized rats turned out to be 2.50 mg/kg.

`CC(C)Oc1ccc(CC(=O)Nc2ccc(C(C(C)N(C)C)n3ccnc3)cc2)cc1` (single isomer, unassigned) [Compound 316]: the IC50 in test [1] turned out to be 4.06 nM. In the test with Ovariectomized rats, the “LAD (lowest active dose)” value worked out at 5.00 mg/kg.

On to `CC(C(c1ccc(NC(=O)Cc2ccc3c(c2)OCO3)cc1)n1cncn1)N(C)C` (single isomer, unassigned) [Compound 330], for which the IC50 in test [1] was found to be 1.82 nM. Moreover, the “LAD (lowest active dose)” value in the test with Ovariectomized rats is 2.50 mg/kg.

Regarding `C/C(=C\c1ccccc1)C(=O)Nc1ccc(C(C(C)N(C)C)n2cncn2)cc1` (single isomer, unassigned) [Compound 332], the IC50 in test [1] amounted to 1.5 nM. Further, the “LAD (lowest active dose)” value in the test on Ovariectomized rats is given as greater than 2.50 mg/kg.

In the case of `CC(C(c1ccc(NC(=O)Cc2ccc3c(c2)OCCO3)cc1)n1ccnc1)N(C)C` (single isomer, unassigned) [Compound 339], the IC50 in test [1] amounted to 1.23 nM. The “LAD (lowest active dose)” value in the test on Ovariectomized rats was greater than 2.50 mg/kg.

For the molecule `CCOc1ccc(CCC(=O)Nc2ccc(C(C(C)N(C)C)n3ccnc3)cc2)cc1` (single isomer, unassigned) [Compound 346], the IC50 in test [1] was determined as 2.04 nM. The “LAD (lowest active dose)” value in the test with Ovariectomized rats is greater than 5.00 mg/kg.

In the case of `COc1ccccc1OCC(=O)Nc1ccc(C(C(C)N(C)C)n2ccnc2)cc1` (single isomer, unassigned) [Compound 351], in test [1], the IC50 was found to be 5.69 nM. Besides, the “LAD (lowest active dose)” value in the test on Ovariectomized rats is listed as greater than 5.00 mg/kg.

On to `CC(C(c1ccc(NC(=O)CN2CCN(C)CC2)cc1)n1ccnc1)N(C)C` (single isomer, unassigned) [Compound 352], for which the IC50 in test [1] amounted to 0.257 nM. The “LAD (lowest active dose)” value in the test with Ovariectomized rats is greater than 5.00 mg/kg.
